Patent publication US20200188297A1, “LXR Agonist in Topical Ophthalmic Formulation for Treatment of Dry-Eye Disorder” (eyeNOS, Inc., priority 2018, published 2020)
Read-outs that look alike come from different tables or passages of the source.

Key:
[1] = system: human corneal epithelial cells (HCE-T); test: Multiplex cytokine expression analysis, hyperosmolar stress insult; type: cell-based; settings: 200 nM, preincubation 1 hour, 600 mOsm for 20 hours
Procedure: The anti-inflammatory effects of T0901317 were studied on in-vitro cell culture of human corneal epithelial cells (HCE-T). HCE-T cells were grown in DMEM/F12 (1:1), 5% fetal bovine serum, penicillin-streptomycin, […] insulin, 10 ng/ml human recombinant epidermal growth factor and 0.5% dimethyl sulfoxide in 5% CO2 at 37° C. To simulate dry-eye conditions, the cells were exposed to hyperosmolar stress insult as described in Chen et al, “Hyperosmolarity-Induced Cornification of Human Corneal Epithelial Cells Is Regulated by JNK MAPK” (February 2008) Investigative Ophthalmology & Visual Science, 49(2):539-549. Confluent HCE-T were passaged into 12-well plates containing KSFM media (keratinocyte-SFM media) for 24 hours, and then NaCl was added to wells in concentrations to produce media osmolarities in the range of 350-800 mOsm. Multiplex cytokine expression analysis was performed to determine the anti-inflammatory effects of T0901317 (at 200 nM).

[2] = system: human corneal epithelial cells (HCE-T); test: Multiplex cytokine expression analysis, LPS-induced secretion; type: cell-based; settings: LPS 10 ng/ml, preincubation with compound
Procedure: The anti-inflammatory effects of T0901317 were studied on in-vitro cell culture of human corneal epithelial cells (HCE-T). […] Multiplex cytokine expression analysis was performed to determine the anti-inflammatory effects of T0901317 (at 200 nM). […] Lipopolysaccharide (LPS)-induced (10 ng/ml) secretion of IL-17, IL-18, and IFNγ was also examined. […] Topical application is not expected to result in activation of the pregnane X receptor (PXR), supporting the notion that the anti-inflammatory effects observed here, both in-vivo and in-vitro, can be attributed to LXR activation.

retinoid X receptor = settings: read-out: EC50 for activation of the retinoid X receptor; cited from earlier work
[3] = system: liver X receptors (LXRα, LXRβ); settings: cited from earlier work
[4] = system: human corneal epithelial (HCE-T) cells; test: ZO-1 immunocytochemistry (barrier function) under hyperosmolar stress; type: cell-based; settings: 0.05 μM in DMSO, pre-treated one hour; 50 mM NaCl overnight; FIG. 20
Procedure: The corneal epithelium serves as a physiological barrier. However, inflammation and the ensuing oxidative stress can impair barrier function and contribute to the exacerbation of inflammatory processes and increase susceptibility to other ocular surface conditions, such as corneal keratitis. The effect of ouabagenin on the barrier function of human corneal epithelial (HCE-T) cells was tested in in-vitro experiments. The cells were seeded at 25,000 cells/well in 8-chamber slides. Cells were incubated for 3 days at 37° C. until confluent. Cells were pre-treated with DMSO (vehicle) or ouabagenin (0.05 μM in DMSO). One hour later, cells received treatment of 0 (media), 25, 50, or 75 mM NaCl to mimic hyperosmolar conditions. Cells were incubated overnight at 37° C.
Zona occludens 1 (ZO-1) is a tight junction protein that is involved in the barrier function of corneal epithelium. The presence of ZO-1 (or absence thereof) is an indicator of the health of this barrier. In this experiment, immunocytochemistry for ZO-1 was performed on the HCE-T cells after the overnight incubation. Slides were imaged under a fluorescent microscope.

Structure (SMILES)	hyperosmolar stress-induced secretion of IL-12 ([1]; FIG. 19B)	hyperosmolar stress-induced secretion of IL-17 ([1]; FIG. 19C)	LPS-induced secretion of IL-17 ([2]; FIG. 19D)	LPS-induced secretion of IL-18 ([2]; FIG. 19E)	LPS-induced secretion of IFNγ ([2]; FIG. 19F)	EC50 (retinoid X receptor) [µM]	LXR subtype selectivity [3]	ZO-1 at the cell junctions (barrier function) [4]	LXR subtype selectivity ([3]; literature reports)
O=S(=O)(c1ccccc1)N(CC(F)(F)F)c1ccc(C(O)(C(F)(F)F)C(F)(F)F)cc1 [T0901317]	fully suppressed	fully suppressed	suppressed	suppressed	suppressed	5	selective for the LXRα subtype	–	–
C[C@]12C[C@@H](O)[C@H]3[C@@H](CC[C@]4(O)C[C@@H](O)C[C@@H](O)[C@]34CO)[C@@]1(O)CC[C@@H]2C1=CC(=O)OC1 [ouabagenin]	–	–	–	–	–	–	–	protected against this loss of ZO-1 barrier function	LXRβ-subtype specific agonist
